In brackets after ≈: the same amount, converted by molar mass.
Key:
[1] = test system: P. aeruginosa; experiment: microbe, parasite or virus in culture; parameters: crystal violet biofilm formation assay in 96-well plates, OD570; conditions: Pseudomonas aeruginosa, 24 h, read-out: % P. aeruginosa biofilm inhibition
Method: In 96-well polystyrene plates, the influence of NBD on biofilm growth was studied. The experiment was carried out in the manner reported by Stepanovi et al., with a few minor changes. P. aeruginosa cells were cultured in LB medium, vortexed, then diluted 1:100 in new LB media to a final concentration of 1.5 × 10^8 CFU/mL (0.5 McFarland) for biofilm development. Cells were then cultured for 24 h at 37 °C with or without NBD. Following that, non-adherent bacteria were washed away in sterile phosphate-buffered saline (PBS), and adherent bacteria were stained for 15 min with a 1% crystal violet solution. Water was used to clean the wells in order to remove any remaining stains. The absorbance of the crystal violet solution at OD570 was determined by spectrophotometric analysis. Wells with phosphate buffer-enriched media were utilized as negative controls. As a positive control, azithromycin (AZM) was used, which inhibits biofilm formation at sub-inhibitory concentrations. […] At this dose, NBD had no effect on the growth of P. aeruginosa, as shown by the fact that the growth curve of the bacteria in the presence of 5 μg/mL NBD was identical to the curve in the absence of the treatment (Figure S1).

[2] = test system: P. aeruginosa; experiment: microbe, parasite or virus in culture; parameters: antibacterial MIC determination; conditions: Pseudomonas aeruginosa
Method: At this dose, NBD had no effect on the growth of P. aeruginosa, as shown by the fact that the growth curve of the bacteria in the presence of 5 μg/mL NBD was identical to the curve in the absence of the treatment (Figure S1).

[3] = test system: E. coli; experiment: microbe, parasite or virus in culture; parameters: antibacterial MIC determination; conditions: Escherichia coli
[4] = target: the molecule itself; experiment: AUC; sedimentation velocity, 141,900 x g, 20 °C, 20 mM Hepes pH 7.5, 100 mM NaCl; LasR 0.5 and 1 mg/mL produced with and in the presence of 100 μM OdDHL; c(S) and c(M) distributions in SEDFIT

For `O=c1oc2c(O)c(O)cc3c(=O)oc4c(O)c(O)cc1c4c23` [Ellagic acid], the inhibition at 5 µg/mL [1] was 22.8%, the MIC [2] was 128 µg/mL (≈ 424 µM) and the MIC [3] was 128 µg/mL (≈ 424 µM).

Work on `O=C(O)c1cc(O)c(O)c(O)c1` [Gallic acid] yielded an inhibition at 5 µg/mL [1] of 21.4%, an MIC [2] greater than 256 µg/mL and an MIC [3] greater than 256 µg/mL.

Molecule `CCCCCc1cc(O)cc2c1Oc1cc(O)cc(C(=O)CCCC)c1C(=O)O2` [NBD, norlobaridone] has an inhibition at 5 µg/mL [1] of 64.6%, an MIC [2] of 128 µg/mL (≈ 321 µM) and an MIC [3] of 128 µg/mL (≈ 321 µM).

For `O=C(O)c1ccc(O)cc1` [P-hydroxy benzoic acid], the inhibition at 5 µg/mL [1] was 12.9%, the MIC [2] was 128 µg/mL (≈ 927 µM) and the MIC [3] was greater than 256 µg/mL.

`CCCCCc1ccccc1O` [Pentylphenol] gave an inhibition at 5 µg/mL [1] of 11.4%, an MIC [2] of 256 µg/mL (≈ 1560 µM) and an MIC [3] greater than 256 µg/mL.

For `Oc1cc(O)cc(O)c1` [Phloroglucinol], the inhibition at 5 µg/mL [1] was 31.1%, the MIC [2] was 64 µg/mL (≈ 507 µM) and the MIC [3] was 64 µg/mL (≈ 507 µM).

With `Oc1cccc(O)c1` [Resorcinol] the inhibition at 5 µg/mL [1] was 27.7%, the MIC [2] was 128 µg/mL (≈ 1160 µM) and the MIC [3] was 128 µg/mL (≈ 1160 µM).

Work on `CC(=O)c1c(O)c(C)c(O)c(Cc2c(O)c3c(c(C(=O)/C=C/c4ccccc4)c2O)OC(C)(C)C=C3)c1O` [Rottlerin] yielded an inhibition at 5 µg/mL [1] of 7.9%, an MIC [2] greater than 256 µg/mL and an MIC [3] greater than 256 µg/mL.

B1: LasR (Pseudomonas aeruginosa transcriptional activator protein, LuxR-type quorum sensing receptor) (natural protein)
chain: MALVDGFLELERSSGKLEWSAILQKMASDLGFSKILFGLLPKDSQDYENAFIVGNYPAAWREHYDRAGYARVDPTVSHCTQSVLPIFWEPSIYQTRKQHEFFEEASAAGLVYGLTMPLHGARGELGALSLSVEAENRAEANRFMESVLPTLWMLKDYALQSGAGLAFEHPVSKPVVLTSREKEVLQWCAIGKTSWEISVICNCSEANVNFHMGNIRRKFGVTSRRVAAIMAVNLGLITL
notes: predicted molecular weight of the single chain 26.62 kD; Produced and kept with a small-molecule ligand: odDHL (dimer) or norlobaridone, NBD (monomer); also called LasR-odDHL; NBD-LasR; source: E. coli BL21 (pET23b, 1 mM IPTG, 18 °C overnight) in the presence of 100 μM OdDHL or 100 μM NBD; purified (heparin column, MonoQ, S200 size exclusion)
B1 was tested, and the “stoichiometry N” value [4] was 2.
